Assay results taken from paper PMC4368888, “Preclinical to Clinical Translation of CNS Transporter Occupancy of TD-9855, a Novel Norepinephrine and Serotonin Reuptake Inhibitor” (International Journal of Neuropsychopharmacology, 2015).

Columns and labels:
[1] = parameters: method as in Theravance Biopharma US, Inc., data on file; conditions: human; ref Theravance Biopharma US, Inc., data on file; cited from earlier work
[2] = Safety and tolerability in Phase 1 PET study; format: in vivo, human; conditions: healthy males, single oral dose 4-20mg
Procedure: All adverse events (AEs) were assessed by the investigator and recorded in the case report form, including the dates of onset and resolution, severity, relationship to study drug, outcome, and action taken with study medication after the dosing of TD-9855 through the follow-up visit. Safety was assessed during the entire study by measurement of vital signs, laboratory tests, and evaluation of ECGs.

NET [3] = molecular target: T1, NET (Homo sapiens, UniProt P23975); assay: Transporter binding kinetics in vitro at human NET
T1 sequence (P23975 whole entry): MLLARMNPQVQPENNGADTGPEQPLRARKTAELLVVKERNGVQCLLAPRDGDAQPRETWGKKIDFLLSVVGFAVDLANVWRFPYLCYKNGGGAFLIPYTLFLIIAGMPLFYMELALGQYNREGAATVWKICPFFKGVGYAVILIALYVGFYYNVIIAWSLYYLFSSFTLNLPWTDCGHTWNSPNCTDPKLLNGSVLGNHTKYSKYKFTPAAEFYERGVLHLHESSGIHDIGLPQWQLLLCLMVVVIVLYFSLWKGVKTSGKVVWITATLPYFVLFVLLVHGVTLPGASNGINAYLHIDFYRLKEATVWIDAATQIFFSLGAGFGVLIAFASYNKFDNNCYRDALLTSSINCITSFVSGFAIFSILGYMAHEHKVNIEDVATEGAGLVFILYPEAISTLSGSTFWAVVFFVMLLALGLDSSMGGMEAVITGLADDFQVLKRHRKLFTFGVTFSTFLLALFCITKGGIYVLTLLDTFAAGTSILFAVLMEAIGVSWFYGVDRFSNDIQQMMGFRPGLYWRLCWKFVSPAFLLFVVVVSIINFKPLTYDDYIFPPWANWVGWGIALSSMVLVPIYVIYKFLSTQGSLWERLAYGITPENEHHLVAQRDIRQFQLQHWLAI

SERT = SERT (Homo sapiens, UniProt P31645); assay: [3H]-citalopram equilibrium binding, HEK293-hSERT membranes; parameters: expressed in transfected cells; host or cells: HEK293 (HEK293-hSERT), stably transfected; conditions: mean (95% CI), 3 to 9 experiments, read-out: Transporter Binding: pKi SERT (converted)
SERT, sequence (P31645 whole entry): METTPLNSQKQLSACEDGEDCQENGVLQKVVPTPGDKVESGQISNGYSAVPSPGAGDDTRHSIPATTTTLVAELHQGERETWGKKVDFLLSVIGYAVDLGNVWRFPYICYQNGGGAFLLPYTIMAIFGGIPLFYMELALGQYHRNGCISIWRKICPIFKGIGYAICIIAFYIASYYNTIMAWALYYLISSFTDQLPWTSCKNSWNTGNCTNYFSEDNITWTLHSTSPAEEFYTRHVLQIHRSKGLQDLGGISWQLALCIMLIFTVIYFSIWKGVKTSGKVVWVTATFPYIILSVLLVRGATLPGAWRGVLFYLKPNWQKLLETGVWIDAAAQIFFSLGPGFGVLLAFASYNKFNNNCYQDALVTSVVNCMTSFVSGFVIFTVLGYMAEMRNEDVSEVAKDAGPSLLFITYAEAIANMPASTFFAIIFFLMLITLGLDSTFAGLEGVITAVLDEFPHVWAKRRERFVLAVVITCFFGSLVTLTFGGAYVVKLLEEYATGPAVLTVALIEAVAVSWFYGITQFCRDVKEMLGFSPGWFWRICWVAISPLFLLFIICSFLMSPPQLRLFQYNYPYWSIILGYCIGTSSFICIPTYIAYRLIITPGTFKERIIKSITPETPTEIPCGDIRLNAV
From the text: (§1) The in vitro pharmacology of TD-9855 (4-[2-(2, 4, 6-trifluorophenoxymethyl)phenyl]piperidine; Figure 1) at human recombinant and rat native monoamine transporters was characterized as described previously ([Tsuruda et al., 2010]; [Shen et al., 2013]). Radioligands were sourced commercially (Perkin Elmer Life Sciences or GE Healthcare Life Sciences). Briefly, membranes prepared from HEK293 (Human Embryonic Kidney 293) cells stably-transfected with human recombinant SERT (HEK293-hSERT), NET (HEK293-hNET), or DAT ([…]) were incubated for 1hr at 22°C in the absence, or presence, of TD-9855 and [^3H]-citalopram (1.0nM) for SERT, [^3H]-nisoxetine (2.0nM) for NET, and [^3H]-WIN35428 (3.0nM) for DAT in 50mM Tris-HCl, 120mM NaCl, 5mM KCl, 0.025% BSA, 100 μM ascorbic acid, pH 7.4. Rat cortical membrane preparations were incubated with [^3H]-citalopram (2.0nM) for SERT or [^3H]-nisoxetine (4.0nM) for NET for 1hr at 22°C. […] Binding and uptake assays were terminated by rapid filtration and radioactivity, determined by liquid scintillation spectroscopy.

NET [4] = molecular target: T1, NET; assay: [3H]-nisoxetine equilibrium binding, HEK293-hNET membranes; parameters: expressed in transfected cells; host or cells: HEK293 (HEK293-hNET), stably transfected; conditions: mean (95% CI), 3 to 9 experiments, read-out: Transporter Binding: pKi NET (converted)
From the text: as §1

human recombinant DAT = molecular target: T2, human recombinant DAT (Homo sapiens, UniProt Q01959); assay: [3H]-DA uptake inhibition in hDAT cells; format: cell-based; conditions: mean (95% CI), 3 to 9 experiments, read-out: Neurotransmitter Uptake Inhibition: pIC50 DAT (converted)
T2 construct: expressed in transfected cells; 'hDAT cells' for uptake
T2 sequence (Q01959 whole entry): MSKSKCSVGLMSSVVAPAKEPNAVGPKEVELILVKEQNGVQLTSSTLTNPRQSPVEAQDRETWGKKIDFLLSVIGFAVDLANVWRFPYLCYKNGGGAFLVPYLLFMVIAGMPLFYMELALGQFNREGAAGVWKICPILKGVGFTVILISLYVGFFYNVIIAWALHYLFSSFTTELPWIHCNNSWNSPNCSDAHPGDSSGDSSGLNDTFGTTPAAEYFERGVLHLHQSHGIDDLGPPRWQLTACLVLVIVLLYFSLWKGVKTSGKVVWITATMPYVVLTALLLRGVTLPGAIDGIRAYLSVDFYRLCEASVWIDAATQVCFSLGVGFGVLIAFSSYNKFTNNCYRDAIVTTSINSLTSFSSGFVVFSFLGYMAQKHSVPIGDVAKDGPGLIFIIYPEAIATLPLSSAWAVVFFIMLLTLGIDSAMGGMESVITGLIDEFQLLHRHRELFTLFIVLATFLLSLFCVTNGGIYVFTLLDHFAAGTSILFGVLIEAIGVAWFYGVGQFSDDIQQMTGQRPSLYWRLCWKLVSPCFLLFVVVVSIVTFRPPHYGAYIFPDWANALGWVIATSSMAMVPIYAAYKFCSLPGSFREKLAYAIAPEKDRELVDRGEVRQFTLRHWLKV
From the text: as §1

rat native NET = rat native NET (Rattus norvegicus, UniProt Q63380); assay: [3H]-NE uptake inhibition in rat cortical synaptosomes; format: biochemical; conditions: Rat; mean (95% CI), 3 to 9 experiments
rat native NET, sequence (Q63380 1-617): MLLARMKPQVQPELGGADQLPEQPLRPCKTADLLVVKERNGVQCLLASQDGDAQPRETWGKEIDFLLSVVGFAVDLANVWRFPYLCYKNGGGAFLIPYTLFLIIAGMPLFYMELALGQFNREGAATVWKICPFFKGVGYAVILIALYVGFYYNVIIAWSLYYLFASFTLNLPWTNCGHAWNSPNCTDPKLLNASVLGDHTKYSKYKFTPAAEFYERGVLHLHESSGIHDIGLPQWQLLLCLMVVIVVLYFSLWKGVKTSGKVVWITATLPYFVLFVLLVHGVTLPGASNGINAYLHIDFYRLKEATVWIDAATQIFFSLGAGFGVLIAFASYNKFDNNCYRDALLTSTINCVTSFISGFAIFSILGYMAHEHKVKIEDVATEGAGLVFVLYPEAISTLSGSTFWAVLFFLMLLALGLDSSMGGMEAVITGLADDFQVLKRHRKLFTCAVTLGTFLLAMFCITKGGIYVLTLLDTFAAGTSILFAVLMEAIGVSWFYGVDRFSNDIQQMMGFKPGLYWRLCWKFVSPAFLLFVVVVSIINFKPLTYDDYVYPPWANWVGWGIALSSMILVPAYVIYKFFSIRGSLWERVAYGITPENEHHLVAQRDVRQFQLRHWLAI
From the text: as §1

With `Fc1cc(F)c(OCc2ccccc2C2CCNCC2)c(F)c1` [TD-9855, 4-[2-(2,4,6-trifluorophenoxymethyl)phenyl]piperidine] as the molecule, how does the plasma protein binding [1] read?
Its plasma protein binding is 79.1%.

What about the “clinical laboratory values, physical examination, vital signs, ECG” value [2] of the same molecule?
The value was “No clinically significant abnormalities”.

What about the “deaths and adverse events” value [2] of the same molecule?
The value was “No deaths, severe AEs, or AEs occurred”.

What about the overall tolerability [2] of the same molecule?
The overall tolerability was “well tolerated”.

What about the kon (NET [3]; read-out: association rate constant at NET (converted)) of the same molecule?
Its kon is 917000 M⁻¹ s⁻¹.

And the koff (NET [3]; read-out: dissociation rate constant at NET (converted))?
The koff was 0.00115 s⁻¹.

What about the Ki (SERT) of the same molecule?
Its Ki is 3.16 nM.

And the Ki (NET [4])?
Its Ki is 1.58 nM.

And the IC50 (human recombinant DAT)?
The IC50 was 158 nM.

What about the “Neurotransmitter Uptake Inhibition: pIC50 NET” value (rat native NET) of the same molecule?
Its value is 8.9 (8.6, 9.1).
